For this test, the system named is L1210 leukemia ip in BDF1 mice, survival T/C. Briefly: NCI In Vivo Anticancer Drug Screen. Data for tumor model L1210 Leukemia (intraperitoneal) in B6D2F1 (BDF1) mice. The conditions noted are these: endpoint: mean survival time, higher = longer survival. In a few lines:
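Each compound was tested against a transplantable tumor grown in mice. The endpoint was survival, with treated animals benchmarked against vehicle controls as a simple ratio.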

Where [1] appears, read: dose: 100.0 mg/kg/injection, schedule: Q04DX003 (ip), vehicle: saline.
[2] abbreviates: dose: 200.0 mg/kg/injection, schedule: Q04DX003 (ip), vehicle: saline.
Where [3] appears, read: dose: 100.0 mg/kg/injection, schedule: Q01DX009 (ip), vehicle: other.
[4] abbreviates: dose: 100.0 mg/kg/injection, schedule: Q04DX003 (ip), vehicle: saline with Tween-80.
Where [5] appears, read: dose: 200.0 mg/kg/injection, schedule: Q01DX009 (ip), vehicle: other.
Where [6] appears, read: dose: 400.0 mg/kg/injection, schedule: Q01DX009 (ip), vehicle: other.
Setting [7] is: dose: 100.0 mg/kg/injection, schedule: Q04DX002 (ip), vehicle: Klucel (hydroxypropylcellulose) (HPC).
[8] abbreviates: dose: 200.0 mg/kg/injection, schedule: Q04DX002 (ip), vehicle: Klucel (hydroxypropylcellulose) (HPC).
The mark [9] stands for this setting: dose: 400.0 mg/kg/injection, schedule: Q04DX002 (ip), vehicle: Klucel (hydroxypropylcellulose) (HPC).
Where [10] appears, read: dose: 100.0 mg/kg/injection, schedule: Q04DX003 (ip), vehicle: Klucel (hydroxypropylcellulose) (HPC).
[11] abbreviates: dose: 200.0 mg/kg/injection, schedule: Q04DX003 (ip), vehicle: Klucel (hydroxypropylcellulose) (HPC).
[12] abbreviates: dose: 400.0 mg/kg/injection, schedule: Q04DX003 (ip), vehicle: Klucel (hydroxypropylcellulose) (HPC).
[13] abbreviates: dose: 400.0 mg/kg/injection, schedule: Q04DX003 (ip), vehicle: saline.

Several values for one entry are separate records, joined by “and”; a condition that tells them apart may be missing. Equal values may be shown once. Inconclusive results and toxic doses are left out.

For the compound `Cn1cnc2c([N+](C)(C)C)ncnc21`, the T/C by setting is: (dose: 11.0 mg/kg/injection, schedule: Q04DX003 (ip), vehicle: saline) 100 % of control; (dose: 22.0 mg/kg/injection, schedule: Q04DX003 (ip), vehicle: saline) 104 % of control; (dose: 44.0 mg/kg/injection, schedule: Q04DX003 (ip), vehicle: saline) 98 % of control; (dose: 90.0 mg/kg/injection, schedule: Q04DX003 (ip), vehicle: saline) 100 % of control; under setting [1], 95 % of control and 101 % of control; under setting [2], 104 % of control.

As for `CC1CCCC(NC(=O)N(CCCl)N=O)C1` (centres undefined), the T/C is 109 % of control (dose: 8.0 mg/kg/injection, schedule: Q01DX001 (ip), vehicle: other); 307 % of control (dose: 27.0 mg/kg/injection, schedule: Q01DX001 (ip), vehicle: other); 170 % of control (dose: 31.0 mg/kg/injection, schedule: Q01DX001 (ip), vehicle: other); 190 % of control (dose: 35.0 mg/kg/injection, schedule: Q01DX001 (ip), vehicle: other); 348 % of control (dose: 42.0 mg/kg/injection, schedule: Q01DX001 (ip), vehicle: other); 275 % of control and 361 % of control (dose: 62.0 mg/kg/injection, schedule: Q01DX001 (ip), vehicle: other). The T/C by setting is: (dose: 71.0 mg/kg/injection, schedule: Q01DX001 (ip), vehicle: other) 301 % of control; (dose: 93.0 mg/kg/injection, schedule: Q01DX001 (ip), vehicle: other) 307 % of control; (dose: 125.0 mg/kg/injection, schedule: Q01DX001 (ip), vehicle: other) 86 % of control; (dose: 286.0 mg/kg/injection, schedule: Q01DX001 (ip), vehicle: other) 88 % of control.

On to `CC1C2CCC(C2)C1C(=O)O` (centres undefined), for which the T/C under setting [3] is 97 % of control; the T/C under setting [4] was 96 % of control; the T/C under setting [5] is 109 % of control; the T/C under setting [6] was 95 % of control; the T/C (dose: 400.0 mg/kg/injection, schedule: Q04DX003 (ip), vehicle: saline with Tween-80) was 87 % of control.

As for `CCOC(=O)CC(C)=O.CCOC(=O)CC(C)=O.CCOC(=O)CC(C)=O.[Al]`, the T/C reads like this: (dose: 12.5 mg/kg/injection, schedule: Q01DX005 (ip), vehicle: Klucel (hydroxypropylcellulose) (HPC)) 96 % of control; (dose: 12.5 mg/kg/injection, schedule: Q01DX009 (ip), vehicle: Klucel (hydroxypropylcellulose) (HPC)) 104 % of control; (dose: 25.0 mg/kg/injection, schedule: Q01DX005 (ip), vehicle: Klucel (hydroxypropylcellulose) (HPC)) 100 % of control; (dose: 25.0 mg/kg/injection, schedule: Q01DX009 (ip), vehicle: Klucel (hydroxypropylcellulose) (HPC)) 107 % of control; (dose: 50.0 mg/kg/injection, schedule: Q01DX005 (ip), vehicle: Klucel (hydroxypropylcellulose) (HPC)) 93 % of control; under setting [7], 100 % of control. For the same compound, the T/C is 93 % of control under setting [8] and 107 % of control under setting [9].

In the case of `CCC(C)(C(=O)OCCOCCCl)c1cccc2ccccc12` (centres undefined), the T/C is 95 % of control (dose: 100.0 mg/kg/injection, schedule: Q04DX002 (ip), vehicle: saline with Tween-80); 104 % of control (dose: 200.0 mg/kg/injection, schedule: Q04DX002 (ip), vehicle: saline with Tween-80); 101 % of control (dose: 400.0 mg/kg/injection, schedule: Q04DX002 (ip), vehicle: saline with Tween-80).

Consider `C[CH2][Sn](/[CH]=C/C(C)(C)O)([CH2]C)[CH2]C`, for which the T/C was 102 % of control (dose: 50.0 mg/kg/injection, schedule: Q01DX009 (ip), vehicle: saline) and 102 % of control (dose: 100.0 mg/kg/injection, schedule: Q01DX009 (ip), vehicle: saline).

`CCCCCC/S(C)=N\S(=O)(=O)c1ccc(Br)cc1` (centres undefined): the T/C was 100 % of control (dose: 50.0 mg/kg/injection, schedule: Q01DX001 (ip), vehicle: carboxymethylcellulose (CMC)); 103 % of control (dose: 100.0 mg/kg/injection, schedule: Q01DX001 (ip), vehicle: carboxymethylcellulose (CMC)); 97 % of control (dose: 200.0 mg/kg/injection, schedule: Q01DX001 (ip), vehicle: carboxymethylcellulose (CMC)); 114 % of control (dose: 400.0 mg/kg/injection, schedule: Q01DX001 (ip), vehicle: carboxymethylcellulose (CMC)).

As for `C=CCN(C)N=Nc1ccccc1C(N)=O`, the T/C is, setting by setting: (dose: 88.0 mg/kg/injection, schedule: Q01DX009 (ip), vehicle: saline with Tween-80) 158 % of control; (dose: 88.0 mg/kg/injection, schedule: Q04DX003 (ip), vehicle: saline with Tween-80) 122 % of control; under setting [4], 116 % of control; (dose: 133.0 mg/kg/injection, schedule: Q01DX009 (ip), vehicle: saline with Tween-80) 150 % of control; (dose: 176.0 mg/kg/injection, schedule: Q01DX001 (ip), vehicle: saline with Tween-80) 109 % of control; (dose: 200.0 mg/kg/injection, schedule: Q01DX009 (ip), vehicle: saline with Tween-80) 95 % of control.

On to `O=C(Cc1ccc([N+](=O)[O-])cc1)Nc1cccc(O)c1`, for which the T/C under setting [10] was 97 % of control, the T/C under setting [11] is 108 % of control and the T/C under setting [12] is 101 % of control.

In the case of `c1ccc2c(c1)Sc1cnccc1N2CC1CO1` (centres undefined), the T/C reads like this: under setting [1], 96 % of control; under setting [2], 92 % of control; under setting [13], 96 % of control.

As for `NC(=O)c1cc(O)c(Br)c(O)c1`, the T/C under setting [3] was 86 % of control; the T/C under setting [1] is 98 % of control; the T/C under setting [5] is 100 % of control; the T/C under setting [2] was 109 % of control; the T/C under setting [6] is 93 % of control; the T/C under setting [13] was 98 % of control.

As for `CC1(C)CCC(C)(C)c2c1ccc(O)c2Cc1c(O)ccc2c1C(C)(C)CCC2(C)C`, the T/C under setting [10] was 96 % of control; the T/C (dose: 200.0 mg/kg/injection, schedule: Q01DX001 (ip), vehicle: saline) was 87 % of control; the T/C under setting [11] is 96 % of control; the T/C under setting [12] was 94 % of control.

`O=C(O)COc1cccc(Cl)c1F`: the T/C is, setting by setting: under setting [7], 100 % of control; under setting [8], 107 % of control; under setting [9], 118 % of control.

On to `O=C1C(Cl)=C(Cl)C(=O)c2cc(Cl)c(Cl)cc21`, for which the T/C (dose: 10.0 mg/kg/injection, schedule: Q01DX001 (ip), vehicle: saline) was 93 % of control.

Regarding `C[C@]12CC[C@H]3[C@@H](CC[C@]4(O)C[C@@H](O)CC[C@]34/C=N/O)[C@@]1(O)CC[C@@H]2C1=COC(=O)C1`, the T/C reads like this: (dose: 1.87 mg/kg/injection, schedule: Q01DX009 (ip), vehicle: carboxymethylcellulose (CMC)) 93 % of control; (dose: 3.75 mg/kg/injection, schedule: Q01DX009 (ip), vehicle: carboxymethylcellulose (CMC)) 104 % of control; (dose: 7.5 mg/kg/injection, schedule: Q01DX009 (ip), vehicle: carboxymethylcellulose (CMC)) 106 % of control; (dose: 30.0 mg/kg/injection, schedule: Q01DX009 (ip), vehicle: carboxymethylcellulose (CMC)) 104 % of control; (dose: 60.0 mg/kg/injection, schedule: Q01DX009 (ip), vehicle: carboxymethylcellulose (CMC)) 93 % of control.

These data come from PubChem BioAssay AID248 (DTP/NCI, 2004).
